pKd: −log10 of the molar value. Where two headings read alike, the source gives them in different places.
Assays:
[1] = Mg2+ affinity in Mg/EGTA buffers; assay type: binding; details: 0.1-0.15M ionic strength, pH 7.0-7.4, 20-23° C.
Description: Ca^2+ -binding constants for chelators before and after photolysis were determined by monitoring UV spectra during titration of EGTA or HEEDTA buffers to varying free Ca^2+ levels.
Free [Mg^2+ ] was likewise controlled by Mg/EGTA buffers, assuming an apparent dissociation constant for the Mg.EGTA complex (including its monoprotonated form) of 6 mM at pH 7.60 in 0.1M ionic strength; see R. Y. Tsien, et al. (1986) and A. E. Martell, et al. (1974).

[2] = Quantum efficiency and completion of photolysis; assay type: physicochemical; details: for Φ quantum efficiency of photolysis, free: zero [Ca2+]
Description: Spectra were obtained after 0, 2, 5, 9, 16, 28, 46, 80, 150, 285, 505 and 903 sec of 365-nm illumination at 7.82×10^- 9 einsteins cm^-2 s^-1 from Spectroline lamp. For clarity only the 0-, 9-, 28-, 46-, 80-, 150-, and 505-s spectra are reproduced herein. The 505- and 903-s spectra were identical, confirming completion of photolysis after those times. Solutions were at 22±2° C.
The method was as described in FIG. 1B except that the EGTA was replaced by 2 mM CaCl2, and spectra were measured after 0-, 50-, 100-, 203-, 412-, 840-, 1730-, 4080-, and 8000-s illumination. The last two spectra were identical, confirming completion. For clarity the 50- and 8000-s spectra are omitted.
The photolysis quantum efficiencies of diazo chelators were determined by alternately irradiating a buffered solution of the substrate with a known intensity of longwave UV light, and measuring the absorbance spectrum, in apparatus described by S. R. Adams, et al. (1988), supra.

[3] = Yield of high affinity chelator / low-affinity side product after photolysis; assay type: physicochemical; details: after photolysis
Description: Because of the direct conjugation of the dialkylamine moiety with the diazoketone group, diazo-2 has a large absorbance in the 350-400 nm range, which shifts 50 nm to shorter wavelengths on binding Ca^2+ (FIG. 1A). The dissociation constant for Ca^2+ is relatively high, at 2.2 μM, due to the electron withdrawing ability of the carbonyl group. Photolysis occurs at 365 nm with a quantum yield of 0.030. The peak at […] in zero Ca^2+ decreases to near baseline giving a spectrum similar to that of unsubstituted BAPTA, although a small peak remains at 355 nm (FIG. 1B). […] The reaction of diazo-2 with dilute aqueous acid should give the same product whose absorbance spectrum indeed matched that of the residual peak at 355 nm after photolysis in low Ca^2+. […] Once the extinction coefficient for the hydroxyacetyl derivative was known, the amount of the side product arising from photolysis is calculated to be about 10%.

[4] = Flash photolysis kinetics of carboxylic acid formation (H+ release, cresol red); assay type: physicochemical; details: pH 8.0, 20° C.; for τ, time constant of phenylacetate formation and H+ release after flash photolysis, free: zero [Ca2+]
From the text: When a diazoketone is photolyzed in aqueous solution the major ultimate product is a carboxylic acid. […] Product formation is thus accompanied by proton release generated (Compound 3c, Scheme I). Product formation is thus accompanied by proton release which is readily monitored spectroscopically if a suitable acid-base indicator is used. Cresol red (pKa 8.2) is chosen to monitor proton release following flash photolysis of the diazo compounds in aqueous solutions adjusted to pH 8. […] The absorbance of cresol red at 572 nm decreases with decreasing pH. As the carboxylic acid product, 3c, is generated, the solution acidifies and the transmittance of the sample is expected to rise. […] The chemical structure of the photo-labile chromophore in diazo-3 is essentially identical to that in diazo-2 (FIG. 6, Scheme IV). Correspondingly, flash photolysis of diazo-3 under identical conditions yield experimental traces which were qualitatively the same as those obtained for diazo-2. In Table I is presented the characteristic time constants for carboxylic acid formation following flash photolysis of diazo-2 and diazo-3. Flash photolysis of Ca^2+ -bound diazo-2 produced the carboxylic acid with a characteristic time of 134 μs. The time slowed to 433 μs when Ca^2+ -free diazo-2 was photolyzed.
Diazo-2 was dissolved at 70 μM concentration in 100 mM KCl, 40 μM H4. BAPTA, and enough cresol red to yield OD572 =0.1 after the solution has been adjusted to pH 8. Transmitted light intensity at 572 nm was monitored using an HG-Xe.arc lamp, a monochromator, a photo multiplier and a Biomation transient recorder. Each small division of the ordinate corresponds to 0.002 absorbance unit. The small upward spike at time zero is an optical artifact from the xenon flash lamp. The solid trace is from the sample containing diazo-2. For comparison, the dotted trace is from a photochemically inert sample containing cresol red in 100 mM KCl at pH about 8.
Kinetics of the conversion of diazo-2 and diazo-3 to the carboxylic acid products and the kinetics of Ca^2+ binding by photolyzed diazo-2 were measured by flash photolysis and pH monitoring. The experiments were done in a Dialog apparatus (Garching, FRG) normally used for temperature jumps. The xenon flash lamp was a Model 6100SP7 (Photochemical Research Associates, London, Ontario, Canada) modified to give a light pulse with a full width at half maximum of 85 μs. The output of the xenon lamp was passed through a UG-2 filter to yield broad-band UV radiation in the 330-390 range. Since neither the flash lamp nor the kinetic spectrometer was optimized for light energy, the response amplitudes achieved in the experiments are far from those attainable during a biological experiment. […]

[5] = after photolysis, read-out: Kd (Mg2+), after photolysis

Cc1ccc(N(CC(=O)O)CC(=O)O)c(OCCOc2cc(C(=O)C=[N+]=[N-])ccc2N(CC(=O)O)CC(=O)O)c1 [diazo-2, 1-(2-bis(carboxymethyl)amino-5-methyl) phenoxy-2-(2-bis(carboxymethyl)amino-5-(diazoacetyl)phenoxy) ethane]
pKd [1, 5]: 2.47 | pKd ([1]; before photolysis, read-out: Kd (Mg2+), before photolysis): 2.26 | quantum yield of photolysis ([2]; 365 nm): 0.030 | illumination time to completion of photolysis, free ([2]; 365 nm, 7.82×10^-9 einsteins cm^-2 s^-1, absence of Ca2+, 8 μM): ≤ 505 s | Φ quantum efficiency of photolysis, +Ca2+ ([2]; saturating [Ca2+]): 0.030 | Φ quantum efficiency of photolysis, free [2]: 0.057 | Photolysis yield (yield of high affinity Ca2+ chelator after photolysis) [3]: 90 | τ, time constant of phenylacetate formation and H+ release after flash photolysis, +Ca2+ ([4]; saturating [Ca2+], additional fast alkalinization component present): 134 μs | τ, time constant of phenylacetate formation and H+ release after flash photolysis, free [4]: 433 μs

COc1cc(C(=O)C=[N+]=[N-])ccc1N(CC(=O)O)CC(=O)O [diazo-3, 2-methoxy-4-(diazoacetyl)aniline-N, N-diacetic acid]
pKd [1, 5]: ~1.70 | Φ quantum efficiency of photolysis, free [2]: 0.048 | Photolysis yield (yield of high affinity Ca2+ chelator after photolysis) [3]: 0 | τ, time constant of phenylacetate formation and H+ release after flash photolysis, free [4]: 239 μs | τ, time constant of phenylacetate formation and H+ release after flash photolysis, free ([4]; listed as Diazo-3): 238 μs

— US5141627A, “Chelators whose affinity for calcium ion is increased by illumination” (The Regents of the University of California, priority 1989, dated 1992)
